In US20260271931A1, “HERBICIDAL MIXTURES” (Bayer Aktiengesellschaft, priority 2023, published 2026):
Like-named read-outs stand apart in the source and are kept apart here.

Legend:
Format in all cases: in vivo
[1] = tested on: Echinochloa crus-galli (ECHCG); test: Post-emergence action against weeds, greenhouse pot test, visual rating: Echinochloa crus-galli
Bidens pilosa (BIDPI) = test: Post-emergence action against weeds, greenhouse pot test, visual rating: Bidens pilosa
Lolium rigidum (LOLRI) = test: Post-emergence action against weeds, greenhouse pot test, visual rating: Lolium rigidum; settings: for pest or weed control at […] / pest or weed control at 0.4 g/ha: Lolium rigidum, 504 h, 21 DAT, read-out: Herbicidal effect [%] on LOLRI 21 DAT
Eleusine indica (ELEIN) = test: Post-emergence action against weeds, greenhouse pot test, visual rating: Eleusine indica; settings: for pest or weed control at […] / pest or weed control at 0.4 g/ha: Eleusine indica, post-emergence
Procedure: (§1) When the observed efficacies already exceed the formal sum total of the values of the tests with individual applications, they also exceed the expected value according to Colby, which is calculated using the formula below and is likewise regarded as an indication of synergism (cf. S. R. Colby; in Weeds 15 (1967) pp. 20 to 22):
(§2) where: • A=efficacy of the active ingredient (A) in % at an application rate of a [g a.i./ha]; • B=efficacy of the active ingredient (B) in % at an application rate of b [g a.i./ha]; • E^C=expected value of the effect of the combination (A)+(B) in % at the combined application rate a+b [g a.i./ha].
(§3) The observed values (E^A) from the experiments, given suitable low dosages, show an effect of the combinations exceeding the expected values according to Colby (E^C) (Δ).
(§4) Seeds of mono- and dicotyledonous weeds were placed in sandy loam in pots, covered with soil and grown in a greenhouse under good growth conditions (temperature, air humidity, water supply). Two to three weeks after sowing, the test plants were treated at the two- to four-leaf stage with the compositions of the invention. The compositions of the invention, formulated as spray powders or as emulsion concentrates, were sprayed onto the green parts of the plant in various dosages with an application rate equivalent to […] of water. After the test plants had been kept in the greenhouse under optimum growth conditions for 3 weeks, the activity of the preparations was rated visually in comparison to untreated controls.
(§5) 100% efficacy means complete control of the particular weed tested.
(§6) 0% efficacy means zero control of the particular weed tested.
(§7) Expected values according to Colby are reported under E.
(§8) The exceedance of the expected value E is given as Δ (=synergistic effect).
(§9) The rating period is reported in days after application (DAT).

[2] = tested on: Brachiaria platyfylla (BRAPP); test: Post-emergence action against weeds, greenhouse pot test, visual rating: Brachiaria platyfylla; settings: for pest or weed control at […] / pest or weed control at 0.4 g/ha: post-emergence
Procedure: as §1, §2, §3, §4, §5, §6, §7, §8, §9

[3] = tested on: Pharbitis purpurea (PHBPU); test: Post-emergence action against weeds, greenhouse pot test, visual rating: Pharbitis purpurea
Procedure: as §1, §2, §3, §4, §5, §6, §7, §8, §9

Centaurea cyanus (CENCY) [4] = test: Post-emergence action against weeds, greenhouse pot test, visual rating: Centaurea cyanus; settings: 240 h, read-out: Herbicidal effect [%] on CENCY 10 DAT
Kochia scoparia (KCHSC) = test: Post-emergence action against weeds, greenhouse pot test, visual rating: Kochia scoparia; settings: for pest or weed control at […] / pest or weed control at 0.4 g/ha: Bassia scoparia, post-emergence, 504 h, read-out: Herbicidal effect [%] on KCHSC 21 DAT
Avena fatua (AVEFA) = test: Post-emergence action against weeds, greenhouse pot test, visual rating: Avena fatua; settings: for pest or weed control at […]: Avena fatua, 240 h, 10 DAT, read-out: Herbicidal effect [%] on AVEFA 10 DAT
Centaurea cyanus (CENCY) [5] = test: Post-emergence action against weeds, greenhouse pot test, visual rating: Centaurea cyanus
Procedure: as §1, §2, §3, §4, §5, §6, §7, §8, §9

[6] = tested on: Sorghum halepense (SORHA); test: Post-emergence action against weeds, greenhouse pot test, visual rating: Sorghum halepense
Procedure: as §1, §2, §3, §4, §5, §6, §7, §8, §9

[7] = tested on: Pharbitis purpurea (PHBPU); test: Post-emergence action against weeds, greenhouse pot test, visual rating: Pharbitis purpurea; settings: 0.4 g a.i./ha
[8] = 504 h, 0.4 g a.i./ha, read-out: Herbicidal effect [%] on ELEIN 21 DAT

CCOC(=O)COc1ncccc1Oc1cc(-n2c(=O)cc(C(C)(F)F)n(C)c2=O)c(F)cc1Cl [Compound A1, ethyl [(3-{2-chloro-5-[4-(1,1-difluoroethyl)-3-methyl-2,6-dioxo-3,6-dihydropyrimidin-1(2H)-yl]-4-fluorophenoxy}pyridin-2-yl)oxy]acetate]
Herbicidal effect [%] on ECHCG 10 DAT ([1]; 0.15 g a.i./ha): 10% | Herbicidal effect [%] on ECHCG 21 DAT ([1]; 0.15 g a.i./ha): 10% | Herbicidal effect [%] on ECHCG 10 DAT ([1]; 0.45 g a.i./ha): 25% | Herbicidal effect [%] on ECHCG 21 DAT ([1]; 0.45 g a.i./ha): 20% | Herbicidal effect [%] on BIDPI 10 DAT (Bidens pilosa (BIDPI); 0.15 g a.i./ha): 20% | Herbicidal effect [%] on BIDPI 21 DAT (Bidens pilosa (BIDPI); 0.15 g a.i./ha): 10% | Herbicidal effect [%] on BIDPI 10 DAT (Bidens pilosa (BIDPI); 0.45 g a.i./ha): 57.5% | Herbicidal effect [%] on BIDPI 21 DAT (Bidens pilosa (BIDPI); 0.45 g a.i./ha): 30% | Herbicidal effect [%] on LOLRI 10 DAT (Lolium rigidum (LOLRI); 0.15 g a.i./ha): 10% | Herbicidal effect [%] on LOLRI 10 DAT (Lolium rigidum (LOLRI); 0.45 g a.i./ha): 15% | pest or weed control at […] (Lolium rigidum (LOLRI); 0.15 g a.i./ha): 5% | pest or weed control at […] (Lolium rigidum (LOLRI); 0.45 g a.i./ha): 5% | pest or weed control at […] (Eleusine indica (ELEIN); 240 h, 0.15 g a.i./ha, read-out: Herbicidal effect [%] on ELEIN 10 DAT): 10% | pest or weed control at […] (Eleusine indica (ELEIN); 240 h, 0.45 g a.i./ha, read-out: Herbicidal effect [%] on ELEIN 10 DAT): 35% | pest or weed control at […] (Eleusine indica (ELEIN); 504 h, 0.15 g a.i./ha, read-out: Herbicidal effect [%] on ELEIN 21 DAT): 5% | pest or weed control at […] (Eleusine indica (ELEIN); 504 h, 0.45 g a.i./ha, read-out: Herbicidal effect [%] on ELEIN 21 DAT): 5% | pest or weed control at […] ([2]; 240 h, 0.15 g a.i./ha, read-out: Herbicidal effect [%] on BRAPP 10 DAT): 30% | pest or weed control at […] ([2]; 240 h, 0.45 g a.i./ha, read-out: Herbicidal effect [%] on BRAPP 10 DAT): 45% | pest or weed control at […] ([2]; 504 h, 0.15 g a.i./ha, read-out: Herbicidal effect [%] on BRAPP 21 DAT): 0% | pest or weed control at […] ([2]; 504 h, 0.45 g a.i./ha, read-out: Herbicidal effect [%] on BRAPP 21 DAT): 0% | Herbicidal effect [%] on PHBPU 10 DAT ([3]; 0.15 g a.i./ha): 20% | Herbicidal effect [%] on PHBPU 21 DAT ([3]; 0.15 g a.i./ha): 20% | Herbicidal effect [%] on PHBPU 10 DAT ([3]; 0.45 g a.i./ha): 77.5% | Herbicidal effect [%] on PHBPU 21 DAT ([3]; 0.45 g a.i./ha): 50% | pest or weed control at […] (Centaurea cyanus (CENCY) [4]; 0.15 g a.i./ha): 15% | pest or weed control at […] (Centaurea cyanus (CENCY) [4]; 0.45 g a.i./ha): 40% | Herbicidal effect [%] on KCHSC 10 DAT (Kochia scoparia (KCHSC); 0.15 g a.i./ha): 5% | Herbicidal effect [%] on KCHSC 10 DAT (Kochia scoparia (KCHSC); 0.45 g a.i./ha): 25% | pest or weed control at […] (Kochia scoparia (KCHSC); 0.15 g a.i./ha): 0% | pest or weed control at […] (Kochia scoparia (KCHSC); 0.45 g a.i./ha): 5% | Herbicidal effect [%] on AVEFA 21 DAT (Avena fatua (AVEFA); 0.15 g a.i./ha): 10% | Herbicidal effect [%] on AVEFA 21 DAT (Avena fatua (AVEFA); 0.45 g a.i./ha): 20% | pest or weed control at […] (Avena fatua (AVEFA); 0.15 g a.i./ha): 5% | pest or weed control at […] (Avena fatua (AVEFA); 0.45 g a.i./ha): 20% | Herbicidal effect [%] on CENCY 21 DAT (Centaurea cyanus (CENCY) [5]; 0.15 g a.i./ha): 15% | Herbicidal effect [%] on CENCY 21 DAT (Centaurea cyanus (CENCY) [5]; 0.45 g a.i./ha): 20% | Herbicidal effect [%] on SORHA 10 DAT ([6]; 0.15 g a.i./ha): 47.5% | Herbicidal effect [%] on SORHA 21 DAT ([6]; 0.15 g a.i./ha): 49% | Herbicidal effect [%] on SORHA 10 DAT ([6]; 0.45 g a.i./ha): 45% | Herbicidal effect [%] on SORHA 21 DAT ([6]; 0.45 g a.i./ha): 40%

C#CCN1C(=O)C(F)(F)Oc2cc(F)c(-n3c(=O)n(C)c(=S)n(C)c3=O)cc21 [Trifludimoxazin, trifludimoxazin]
Herbicidal effect [%] on BIDPI 10 DAT (Bidens pilosa (BIDPI); 0.4 g a.i./ha): 60% | Herbicidal effect [%] on BIDPI 21 DAT (Bidens pilosa (BIDPI); 0.4 g a.i./ha): 60% | Herbicidal effect [%] on LOLRI 10 DAT (Lolium rigidum (LOLRI); 0.4 g a.i./ha): 20% | Herbicidal effect [%] on ELEIN 10 DAT (Eleusine indica (ELEIN); 0.4 g a.i./ha): 70% | Herbicidal effect [%] on ELEIN 21 DAT (Eleusine indica (ELEIN); 0.4 g a.i./ha): 20% | Herbicidal effect [%] on BRAPP 10 DAT ([2]; 0.4 g a.i./ha): 40% | Herbicidal effect [%] on BRAPP 21 DAT ([2]; 0.4 g a.i./ha): 0% | Herbicidal effect [%] on PHBPU 21 DAT ([3]; 0.4 g a.i./ha): 40% | Herbicidal effect [%] on PHBPU 10 DAT [7]: 80% | Herbicidal effect [%] on KCHSC 10 DAT (Kochia scoparia (KCHSC); 0.4 g a.i./ha): 85% | Herbicidal effect [%] on KCHSC 21 DAT (Kochia scoparia (KCHSC); 0.4 g a.i./ha): 60% | Herbicidal effect [%] on CENCY 10 DAT (Centaurea cyanus (CENCY) [5]; 0.4 g a.i./ha): 30%

C=C[C@]1(C(=O)N[C@H]2CO[C@@H](C(=O)OC)C2)CC(c2cc(F)cc(F)c2)=NO1 (relative stereo) [Icafolin-methyl, methyl rel-(2R,4R)-4-[[(5S)-3-(3,5-difluorophenyl)-5-vinyl-4H-isoxazole-5-carbonyl]amino]tetrahydrofuran-2-carboxylate]
Herbicidal effect [%] on LOLRI 10 DAT (Lolium rigidum (LOLRI); 0.4 g a.i./ha): 10% | pest or weed control at 0.4 g/ha (Lolium rigidum (LOLRI); 0.4 g a.i./ha): 0% | pest or weed control at 0.4 g/ha (Eleusine indica (ELEIN); [8]): 0% | Herbicidal effect [%] on PHBPU 10 DAT [7]: 0% | pest or weed control at 0.4 g/ha (Centaurea cyanus (CENCY) [4]; 0.4 g a.i./ha): 0% | pest or weed control at 0.4 g/ha (Kochia scoparia (KCHSC); 0.4 g a.i./ha): 0% | Herbicidal effect [%] on AVEFA 21 DAT (Avena fatua (AVEFA); 0.4 g a.i./ha): 10%

C#CCN1C(=O)COc2cc(F)c(N3C(=O)C4=C(CCCC4)C3=O)cc21 [Flumioxazin, flumioxazin]
pest or weed control at 0.4 g/ha (Lolium rigidum (LOLRI); 0.4 g a.i./ha): 0% | pest or weed control at 0.4 g/ha (Eleusine indica (ELEIN); 240 h, 0.4 g a.i./ha, read-out: Herbicidal effect [%] on ELEIN 10 DAT): 30% | pest or weed control at 0.4 g/ha (Eleusine indica (ELEIN); [8]): 0% | pest or weed control at 0.4 g/ha ([2]; 240 h, 0.4 g a.i./ha, read-out: Herbicidal effect [%] on BRAPP 10 DAT): 30% | pest or weed control at 0.4 g/ha ([2]; 504 h, 0.4 g a.i./ha, read-out: Herbicidal effect [%] on BRAPP 21 DAT): 10% | Herbicidal effect [%] on PHBPU 21 DAT ([3]; 0.4 g a.i./ha): 30% | Herbicidal effect [%] on PHBPU 10 DAT [7]: 50% | Herbicidal effect [%] on KCHSC 10 DAT (Kochia scoparia (KCHSC); 0.4 g a.i./ha): 30% | pest or weed control at 0.4 g/ha (Kochia scoparia (KCHSC); 0.4 g a.i./ha): 10%
